Columns and labels:
human PRDX5 [1] = target: T1, human PRDX5 (Homo sapiens, UniProt P30044); assay: NMR screening: STD factor (f STD) of fragments with PRDX5; type: binding; settings: for f STD: F152 compared with D3; for STD factor (f STD): Figure 2, relative degree of saturation normalized to that of F090
T1 construct: 6xHis (N); made in house; host or cells: E. coli strain M15 (pRep4)
T1 sequence (P30044 53-214): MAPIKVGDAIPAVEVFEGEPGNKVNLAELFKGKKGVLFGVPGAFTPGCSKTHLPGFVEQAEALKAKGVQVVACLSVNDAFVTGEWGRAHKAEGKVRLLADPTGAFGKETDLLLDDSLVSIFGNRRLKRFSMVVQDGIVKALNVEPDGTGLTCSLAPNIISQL
Procedure: All spectra were acquired at 20°C with a Varian Inova 600 MHz NMR spectrometer, equipped with a standard 5 mm triple-resonance inverse probe with a z-axis field gradient, actively shielded, and with an autosampler robot. The NMR samples were prepared with a robot TECAN Miniprep 60. For 175 fragments, 32 NMR tubes were prepared with 20 µM of the reduced protein and 600 µM fragments. For 25 fragments (6 NMR samples) that were not soluble at 600 µM in water, the final concentration in the NMR tube was set to 200 µM. All samples contained 1 mM DTT. […] Control 1D ^1H spectra preceded all experiments to assess the purity and stability of the fragments. NMR screening was achieved using 1D STD [30] and Waterlogsy experiments. The parameters used were the same as previously described. All NMR spectra were processed with the Varian VnmrJ software.
(§1) KD values were determined by fitting the plot of [L]tot vs. f STD as previously published.

human PRDX5 [2] = target: T1, human PRDX5; assay: Thioredoxin peroxidase activity inhibition assay; type: biochemical; settings: 0–600 µM
Procedure: Inhibition of thioredoxin peroxidase activity was assayed using thioredoxin peroxidase assay in a 96-well plate reader essentially as described by Kim et al. [48] and Theys et al. [49]. Briefly, the spectrometric assay was performed in a 160 µl reaction mixture containing 500 µM NADPH, 4 µM recombinant S.cerevisiae thioredoxin, 2 µM recombinant S.cervisiae thioredoxin reductase, 0.6 µM human recombinant PRDX5 and increasing concentrations (0 to 6 mM) of fragments (from stock solutions in DMSO) in PBS 0.1M (pH 7.4). The reaction was initiated by adding H2O2 at the final concentration of 100 µM. NADPH oxidation was monitored by following absorbance at 340 nm for 30 min at 37°C. The initial rate of reaction was calculated using the linear portion of the curve and was expressed as the amount of NADPH oxidized per min. The IC50 was calculated with the percentage of remaining thioredoxin peroxidase activity. Measurements were performed in quadruplicates.

[3] = Solubility in water / in the assay; type: physicochemical; settings: for solubility in water: for KD measurement by STD titration; for solubility in the assay: thioredoxin peroxidase inhibition assay
Description: We previously designed a small generalist library of 60 fragments and used it to elaborate an inhibitor of the Creatine kinase protein [27], based on the identification of an initial fragment by NMR screening. Here, the library was enlarged and contains 200 fragments that correspond to small commercial compounds with physicochemical properties defined by the rule of three. The 140 newly added fragments were chosen so as to enhance the diversity of the library in terms of size, shape and chemical functionalities. […] Waterlogsy experiments were recorded to detect possible aggregation as LOGSY effects are characteristic of high molecular weight compounds in water. When the molecules were not soluble at 600 µM, solutions were tested at 200 µM. If not soluble, the molecules were rejected from the selection. Then, to optimize the experimental time and to reduce the protein quantity required for the NMR screening experiments, fragments were pulled into mixtures of 3 to 6 molecules with minimum spectral overlap. NMR spectra of the mixtures were recorded after 3 months to confirm the absence of degradation of the compounds.
The compounds of the library were chosen from Aldrich or Acros online catalogs with SHAPES-like criteria [40]–[42] and had to fit the rule of three. Aqueous solubility was checked for all compounds by recording ^1H 1D NMR spectrum and Waterlogsy spectrum, [43]. 110 mM stock solutions of the library compounds were prepared in DMSO-d 6 and conserved at −20°C. ^1H 1D NMR spectrum were recorded to check that no degradation occurs over 3 months. Compounds were mixed by 3 to 6 to decrease the NMR experimental time as well as the protein quantity. Criteria for the compound selection for the mixtures were the absence of overlapping resonances in the 1D NMR spectra. The library contained 200 validated fragments.

human PRDX5 [4] = target: T1, human PRDX5; assay: KD measurements by STD factor variation upon titration; type: binding
Procedure: as §1

For `Cc1ccc(O)c(O)c1` [D3, 4-methyl-catechol], the “f STD” value (human PRDX5 [1]) was 66%.

With `Oc1ccccc1-c1ccccc1` [F012] the “STD factor (f STD)” value (human PRDX5 [1]) was 88, the “inhibitory activity on thioredoxin peroxidase activity” value (human PRDX5 [2]) was “no inhibitory activity” and the solubility in water [3] was “too low”.

In the case of `Oc1cccc2[nH]c3ccccc3c12` [F069], the “STD factor (f STD)” value (human PRDX5 [1]) is reported as 42 and the solubility in water [3] is reported as “too low”.

With `O=C(c1ccccc1)c1ccc(O)cc1O` [F082] the “STD factor (f STD)” value (human PRDX5 [1]) was 69 and the solubility in water [3] was “too low”.

With `Oc1ccccc1Cc1ccccc1O` [F090, bis-(2-hydroxyphenyl)-methan] the “STD factor (f STD)” value (human PRDX5 [1]) was 100, the Kd (human PRDX5 [4]; STD titration, reduced PRDX5, read-out: dissociation constant KD) was 1200 ± 400 µM and the ligand efficiency (human PRDX5 [4]; free energy of binding divided by the number of heavy atoms) was 0.42 kcal/mol. The “solubility in the assay” value [3] was “insufficient solubility”.

For `Oc1ccc(-c2ccc(O)cc2)cc1` [F093], the “STD factor (f STD)” value (human PRDX5 [1]) was 76, the solubility in water [3] was “too low” and the “solubility in the assay” value [3] was “insufficient solubility”.

With `Oc1ccccc1O` [F152, catechol] the “f STD” value (human PRDX5 [1]) was 32% and the “STD factor (f STD)” value (human PRDX5 [1]) was 32.

From paper PMC2840032, “Discovery of Fragment Molecules That Bind the Human Peroxiredoxin 5 Active Site” (PLoS ONE, 2010)
